Test results: publication PMC4032265 (PLoS ONE, 2014)
Where “and” joins values, the source holds several entries; their conditions need not be identical. Equal entries are not always repeated. Where two headings read alike, the source gives them in different places.

Experiments:
[1] = target: 5HT2B serotonergic receptor (Homo sapiens, UniProt P41595); experiment: PDSP radioligand binding, 5HT2B; conditions: for inhibition at 10 µM: read-out: % inhibition at 10 µM; for Ki: full concentration-response curves, n = 3-6 unless noted
[2] = target: T1, α1A adrenergic receptor (Homo sapiens, UniProt P35348); experiment: PDSP radioligand binding, α1A; conditions: read-out: % inhibition at 10 µM; single concentration 10 µM
T1 sequence (P35348 1-466): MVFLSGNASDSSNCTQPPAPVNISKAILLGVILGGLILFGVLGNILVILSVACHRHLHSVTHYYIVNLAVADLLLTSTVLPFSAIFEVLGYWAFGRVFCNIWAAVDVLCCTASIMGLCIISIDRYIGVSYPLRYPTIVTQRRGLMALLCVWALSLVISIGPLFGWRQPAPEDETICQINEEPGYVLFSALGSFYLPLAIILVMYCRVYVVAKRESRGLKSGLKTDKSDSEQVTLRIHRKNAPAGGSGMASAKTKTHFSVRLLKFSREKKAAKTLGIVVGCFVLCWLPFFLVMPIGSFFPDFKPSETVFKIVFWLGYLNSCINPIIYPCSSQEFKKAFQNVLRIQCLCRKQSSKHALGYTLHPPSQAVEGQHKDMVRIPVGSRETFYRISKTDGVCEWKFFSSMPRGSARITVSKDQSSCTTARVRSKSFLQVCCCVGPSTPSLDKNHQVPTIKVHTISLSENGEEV

[3] = target: β1 adrenergic receptor (Homo sapiens, UniProt P08588); experiment: PDSP radioligand binding, β1; conditions: read-out: % inhibition at 10 µM; single concentration 10 µM
[4] = target: T2, M1 muscarinic acetylcholine receptor (Homo sapiens, UniProt P11229); experiment: PDSP radioligand binding, M1; conditions: read-out: % inhibition at 10 µM; single concentration 10 µM
T2 sequence (P11229 1-460): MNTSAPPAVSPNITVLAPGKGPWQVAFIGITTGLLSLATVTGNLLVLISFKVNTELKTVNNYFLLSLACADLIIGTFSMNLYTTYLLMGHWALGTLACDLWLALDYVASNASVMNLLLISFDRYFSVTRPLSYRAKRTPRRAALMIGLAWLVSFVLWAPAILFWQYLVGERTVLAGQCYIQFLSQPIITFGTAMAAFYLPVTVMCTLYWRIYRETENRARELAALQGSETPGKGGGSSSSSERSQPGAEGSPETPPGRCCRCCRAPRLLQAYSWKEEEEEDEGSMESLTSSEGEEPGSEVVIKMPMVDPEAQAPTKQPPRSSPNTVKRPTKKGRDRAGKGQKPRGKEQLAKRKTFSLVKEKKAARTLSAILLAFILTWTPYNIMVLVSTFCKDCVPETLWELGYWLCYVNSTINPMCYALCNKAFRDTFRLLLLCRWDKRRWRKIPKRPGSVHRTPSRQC

[5] = target: T3, M2 muscarinic acetylcholine receptor (Homo sapiens, UniProt P08172); experiment: PDSP radioligand binding, M2; conditions: read-out: % inhibition at 10 µM; single concentration 10 µM
T3 sequence (P08172 1-466): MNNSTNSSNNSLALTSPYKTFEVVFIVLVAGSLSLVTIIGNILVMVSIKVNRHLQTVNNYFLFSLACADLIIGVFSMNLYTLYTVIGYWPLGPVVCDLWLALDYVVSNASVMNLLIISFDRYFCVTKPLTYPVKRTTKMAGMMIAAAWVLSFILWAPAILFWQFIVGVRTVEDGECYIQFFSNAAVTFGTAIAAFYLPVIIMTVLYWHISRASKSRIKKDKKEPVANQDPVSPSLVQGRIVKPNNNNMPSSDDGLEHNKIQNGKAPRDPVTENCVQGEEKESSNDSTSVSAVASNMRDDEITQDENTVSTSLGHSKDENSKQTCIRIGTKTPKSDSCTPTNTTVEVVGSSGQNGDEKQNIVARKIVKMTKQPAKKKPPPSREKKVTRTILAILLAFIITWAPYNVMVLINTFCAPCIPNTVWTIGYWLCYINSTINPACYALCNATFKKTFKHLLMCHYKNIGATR

[6] = target: T4, M5 muscarinic acetylcholine receptor (Homo sapiens, UniProt P08912); experiment: PDSP radioligand binding, M5; conditions: read-out: % inhibition at 10 µM; single concentration 10 µM
T4 sequence (P08912 1-532): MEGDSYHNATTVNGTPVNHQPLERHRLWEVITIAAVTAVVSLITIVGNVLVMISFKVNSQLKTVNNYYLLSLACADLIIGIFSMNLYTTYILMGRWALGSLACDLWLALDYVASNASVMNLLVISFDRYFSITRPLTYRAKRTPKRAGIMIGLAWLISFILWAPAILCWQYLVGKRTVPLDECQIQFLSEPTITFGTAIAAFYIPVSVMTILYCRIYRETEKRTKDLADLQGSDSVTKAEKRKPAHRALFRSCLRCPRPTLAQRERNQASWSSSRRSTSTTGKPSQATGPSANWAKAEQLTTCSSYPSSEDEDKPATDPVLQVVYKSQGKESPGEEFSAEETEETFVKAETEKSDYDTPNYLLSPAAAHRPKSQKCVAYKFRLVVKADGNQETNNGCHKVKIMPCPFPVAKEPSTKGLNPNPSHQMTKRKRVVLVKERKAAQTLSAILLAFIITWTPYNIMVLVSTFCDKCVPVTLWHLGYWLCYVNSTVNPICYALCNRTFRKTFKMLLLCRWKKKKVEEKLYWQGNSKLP

[7] = target: H1 histaminergic receptor (Homo sapiens, UniProt P35367); experiment: PDSP radioligand binding, H1; conditions: read-out: % inhibition at 10 µM; single concentration 10 µM
[8] = target: D1 dopaminergic receptor (Homo sapiens, UniProt P21728); experiment: PDSP radioligand binding, D1; conditions: read-out: % inhibition at 10 µM; single concentration 10 µM
[9] = target: T5, D4 dopaminergic receptor (Homo sapiens, UniProt P21917); experiment: PDSP radioligand binding, D4; conditions: read-out: % inhibition at 10 µM; single concentration 10 µM
T5 sequence (P21917 1-419): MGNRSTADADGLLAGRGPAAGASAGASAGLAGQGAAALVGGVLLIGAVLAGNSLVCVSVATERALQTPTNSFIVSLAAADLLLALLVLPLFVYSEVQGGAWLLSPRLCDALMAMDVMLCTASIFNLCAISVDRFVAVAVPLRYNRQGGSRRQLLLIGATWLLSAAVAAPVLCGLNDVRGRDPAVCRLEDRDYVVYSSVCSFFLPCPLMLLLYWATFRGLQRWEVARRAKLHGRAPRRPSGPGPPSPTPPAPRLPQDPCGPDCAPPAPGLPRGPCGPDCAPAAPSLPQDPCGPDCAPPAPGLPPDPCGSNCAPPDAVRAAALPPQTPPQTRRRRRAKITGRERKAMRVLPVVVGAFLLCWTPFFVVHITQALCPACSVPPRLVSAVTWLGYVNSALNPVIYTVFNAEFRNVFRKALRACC

Chain of D1 dopaminergic receptor (P21728 whole entry): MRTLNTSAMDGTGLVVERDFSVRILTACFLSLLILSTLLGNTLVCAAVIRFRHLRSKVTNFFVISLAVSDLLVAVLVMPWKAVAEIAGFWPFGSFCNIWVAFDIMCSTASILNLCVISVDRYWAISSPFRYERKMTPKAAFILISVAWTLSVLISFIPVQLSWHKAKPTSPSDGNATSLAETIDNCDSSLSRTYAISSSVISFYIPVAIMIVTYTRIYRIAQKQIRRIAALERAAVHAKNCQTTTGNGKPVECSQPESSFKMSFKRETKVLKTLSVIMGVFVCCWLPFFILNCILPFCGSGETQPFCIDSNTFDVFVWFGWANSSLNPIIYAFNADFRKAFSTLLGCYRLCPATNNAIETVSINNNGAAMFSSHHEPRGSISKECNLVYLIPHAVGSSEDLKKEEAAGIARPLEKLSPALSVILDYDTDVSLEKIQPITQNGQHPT
Chain of 5HT2B serotonergic receptor (P41595 whole entry): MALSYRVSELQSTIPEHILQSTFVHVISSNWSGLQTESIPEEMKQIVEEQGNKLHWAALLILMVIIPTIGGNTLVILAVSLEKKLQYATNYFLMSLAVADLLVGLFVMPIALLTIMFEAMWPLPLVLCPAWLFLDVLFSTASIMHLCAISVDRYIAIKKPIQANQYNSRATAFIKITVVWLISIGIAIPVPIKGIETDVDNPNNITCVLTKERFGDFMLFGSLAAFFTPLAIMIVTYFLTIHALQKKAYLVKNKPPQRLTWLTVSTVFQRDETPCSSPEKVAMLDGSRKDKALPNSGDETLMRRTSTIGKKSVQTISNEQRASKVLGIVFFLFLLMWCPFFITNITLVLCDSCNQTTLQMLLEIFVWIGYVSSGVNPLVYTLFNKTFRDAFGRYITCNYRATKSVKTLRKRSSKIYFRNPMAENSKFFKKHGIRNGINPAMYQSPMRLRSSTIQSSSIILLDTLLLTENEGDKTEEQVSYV
Chain of H1 histaminergic receptor (P35367 whole entry): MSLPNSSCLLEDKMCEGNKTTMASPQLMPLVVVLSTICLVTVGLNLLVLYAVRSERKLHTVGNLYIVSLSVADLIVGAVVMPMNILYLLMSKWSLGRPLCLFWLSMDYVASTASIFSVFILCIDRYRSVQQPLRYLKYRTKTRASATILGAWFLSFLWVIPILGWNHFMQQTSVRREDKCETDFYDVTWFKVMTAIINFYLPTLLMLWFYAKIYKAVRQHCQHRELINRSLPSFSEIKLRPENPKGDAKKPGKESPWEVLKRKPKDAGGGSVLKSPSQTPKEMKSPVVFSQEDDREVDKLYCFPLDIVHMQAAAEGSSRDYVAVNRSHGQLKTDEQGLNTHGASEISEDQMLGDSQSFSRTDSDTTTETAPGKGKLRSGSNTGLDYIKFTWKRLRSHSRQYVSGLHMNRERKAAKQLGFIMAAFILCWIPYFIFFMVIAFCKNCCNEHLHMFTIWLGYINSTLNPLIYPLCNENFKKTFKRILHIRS
Chain of β1 adrenergic receptor (P08588 whole entry, species assumed): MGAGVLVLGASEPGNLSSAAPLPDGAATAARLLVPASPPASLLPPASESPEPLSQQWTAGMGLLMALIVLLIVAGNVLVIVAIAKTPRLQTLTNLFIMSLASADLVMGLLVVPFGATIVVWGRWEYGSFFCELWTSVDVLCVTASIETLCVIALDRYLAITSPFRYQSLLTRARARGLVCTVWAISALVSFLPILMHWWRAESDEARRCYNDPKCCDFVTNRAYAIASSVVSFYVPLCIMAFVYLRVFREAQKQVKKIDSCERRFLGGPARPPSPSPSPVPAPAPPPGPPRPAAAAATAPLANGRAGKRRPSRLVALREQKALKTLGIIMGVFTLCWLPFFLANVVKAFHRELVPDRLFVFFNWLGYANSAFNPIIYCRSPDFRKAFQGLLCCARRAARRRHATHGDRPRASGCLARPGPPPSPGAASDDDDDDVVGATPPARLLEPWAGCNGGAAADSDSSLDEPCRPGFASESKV

SMILES | inhibition at 10 µM ([1]; single concentration 10 µM) | inhibition at 10 µM [2] | inhibition at 10 µM [3] | inhibition at 10 µM [4] | inhibition at 10 µM [5] | inhibition at 10 µM [6] | inhibition at 10 µM [7] | inhibition at 10 µM [8] | inhibition at 10 µM [9] | Ki [1] | inhibition at 10 µM [1]
O[C@@H]1[C@H](O)[C@@H]2C[C@@H]2[C@H]1n1cnc2c(NCc3cccc(Cl)c3)nc(C#Cc3ccc(F)c(F)c3)nc21 [Compound 6] | 34% | 13% | 6% | 3% | 7% | 3% | 3% | 3% | 0% |  | 
O[C@@H]1[C@H](O)[C@@H]2C[C@@H]2[C@H]1n1cnc2c(NCc3cccc(Cl)c3)ncnc21 [Compound 7] | 75% | 15% | 0% | 24% | 15% | 15% | 64% | 2% | 0% | 2.22 ± 0.65 µM | 
Fc1ccc(C#Cc2nc(NCc3cccc(Cl)c3)c3nc[nH]c3n2)cc1F [Compound 8] | 39% | 0% | 0% | 27% | 6% | 2% | 1% | 0% | 0% | 4 ± 1.92 µM | 
Clc1cccc(CNc2nc(Cl)nc3[nH]cnc23)c1 [Compound 9] | 55% | 26% | 37% | 12% | 9% | 0% | 4% | 0% | 0% | 1.78 ± 0.35 µM | 
O[C@@H]1[C@H](O)[C@@H]2C[C@@H]2[C@H]1n1cnc2c(NC(C3CC3)C3CC3)nc(Cl)nc21 [Compound 10] |  | 1% | 4% | 0% | 15% | 0% | 0% | 0% | 0% | 0.64 µM and 0.641 µM | 47%
